Experiments:
[1] = tested on: Corn Earworm (CEW) (Helicoverpa zea); assay: Bioassays on Corn Earworm (CEW), 128-well diet tray assay; format: in vivo; conditions: 168 h, 50 μg/cm^2 test compound on artificial diet, second instar larvae, 25° C., five to seven days, average of eight wells, read-out: CEW Rating (% mortality)
Description: (§1) Certain molecules disclosed in this document were tested against BAW and CEW using procedures described in the following examples. In the reporting of the results, the “BAW & CEW Rating Table” was used (See Table Section).
Bioassays on CEW (Helicoverpa zea)
Bioassays on CEW were conducted using a 128-well diet tray assay. one to five second instar CEW larvae were placed in each well (3 mL) of the diet tray that had been previously filled with 1 mL of artificial diet to which 50 μg/cm^2 of the test compound (dissolved in 50 μL of 90:10 acetone-water mixture) had been applied (to each of eight wells) and then allowed to dry. Trays were covered with a clear self-adhesive cover, and held at 25° C., 14:10 light-dark for five to seven days. Percent mortality was recorded for the larvae in each well; activity in the eight wells was then averaged. The results are indicated in the table entitled “Table 3: Assay Results” (See Table Section).

[2] = tested on: Beet Armyworm (BAW) (Spodoptera exigua); assay: Bioassays on Beet Armyworm (BAW), 128-well diet tray assay; format: in vivo; conditions: 168 h, 50 μg/cm^2 test compound on artificial diet, second instar larvae, 25° C., five to seven days, average of eight wells, read-out: BAW Rating (% mortality)
Description: as §1
Bioassays on BAW (Spodoptera exigua)
Bioassays on BAW were conducted using a 128-well diet tray assay. one to five second instar BAW larvae were placed in each well (3 mL) of the diet tray that had been previously filled with 1 mL of artificial diet to which 50 μg/cm^2 of the test compound (dissolved in 50 μL of 90:10 acetone-water mixture) had been applied (to each of eight wells) and then allowed to dry. Trays were covered with a clear self-adhesive cover, and held at 25° C., 14:10 light-dark for five to seven days. Percent mortality was recorded for the larvae in each well; activity in the eight wells was then averaged. The results are indicated in the table entitled “Table 3: Assay Results” (See Table Section).

SMILES | mortality at 50 µg/cm2 [1] [%] | mortality at 50 µg/cm2 [2] [%]
Cc1cc(/C=C/C(c2cc(Cl)c(F)c(Cl)c2)C(F)(F)F)ccc1C(=O)NCc1ccc(Cl)cn1 (stereo not drawn) [AC53] | 50 to 100 | 50 to 100
Cc1cc(/C=C/C(c2cc(Cl)c(F)c(Cl)c2)C(F)(F)F)ccc1C(=O)NCc1ccnc(Cl)c1 (stereo not drawn) [AC54] | 50 to 100 | 50 to 100
O=C(CNC(=O)c1ccc(/C=C/C(c2cc(Cl)cc(Cl)c2)C(F)(F)F)cc1Cl)NCC(F)(F)F (stereo not drawn) [AC57] | 50 to 100 | 50 to 100
CC(C)(C)OC(=O)CNC(=O)c1ccc(/C=C/C(c2cc(Cl)c(Cl)c(Cl)c2)C(F)(F)F)cc1Br (stereo not drawn) [AC58] | 50 to 100 | 50 to 100
Cc1cc(/C=C/C(c2cc(Cl)cc(Cl)c2)C(F)(F)F)ccc1C(=O)Nc1ccc(Cl)nc1 (stereo not drawn) [AC59] | 50 to 100 | 50 to 100
Cc1cc(/C=C/C(c2cc(Cl)cc(Cl)c2)C(F)(F)F)cnc1C(=O)NCc1ccc(Cl)nc1 (stereo not drawn) [AC60] | 50 to 100 | 50 to 100
O=C(NC1CSC1)c1ccc(/C=C/C(c2cc(Cl)cc(Cl)c2)C(F)(F)F)cc1F (stereo not drawn) [AC61] | 50 to 100 | 50 to 100
O=C(CNC(=O)c1ccc(/C=C/C(c2cc(Cl)cc(Cl)c2)C(F)(F)F)cc1F)NCC(F)(F)F (stereo not drawn) [AC62] | 50 to 100 | 50 to 100
O=C(NCc1ccc(Cl)nc1)c1ccc(/C=C/C(c2cc(Cl)c(F)c(Cl)c2)C(F)(F)F)cc1Br (stereo not drawn) [AC63] | 50 to 100 | 50 to 100
O=C(CNC(=O)c1ccc(/C=C/C(c2cc(Cl)c(Cl)c(Cl)c2)C(F)(F)F)cc1Cl)NCC(F)(F)F (stereo not drawn) [AC64, (E)-2-chloro-N-(2-oxo-2-((2,2,2-trifluoroethyl)amino)ethyl)-4-(4,4,4-trifluoro-3-(3,4,5-trichlorophenyl)but-1-en-1-yl)benzamide] | 50 to 100 | 50 to 100
O=C(NCc1ccc(Cl)nc1)c1ccc(/C=C/C(c2cc(Cl)c(F)c(Cl)c2)C(F)(F)F)cc1F (stereo not drawn) [AC65] | 50 to 100 | 50 to 100
O=C(CNC(=O)c1ccc(/C=C/C(c2cc(Cl)c(Cl)c(Cl)c2)C(F)(F)F)cc1Br)NCC(F)(F)F (stereo not drawn) [AC66] | 50 to 100 | 50 to 100
O=C(NC1CSC1)c1ccc(/C=C/C(c2cc(Cl)c(F)c(Cl)c2)C(F)(F)F)cc1F (stereo not drawn) [AC67] | 50 to 100 | 50 to 100
O=C(CNC(=O)c1ccc(/C=C/C(c2cc(Cl)c(F)c(Cl)c2)C(F)(F)F)cc1F)NCC(F)(F)F (stereo not drawn) [AC68] | 50 to 100 | 50 to 100
Cc1cc(/C=C/C(c2cc(Cl)c(F)c(Cl)c2)C(F)(F)F)ccc1C(=O)NCC(=O)NCC(F)(F)F (stereo not drawn) [AC69] | 50 to 100 | 50 to 100
COc1cc(/C=C/C(c2cc(Cl)c(F)c(Cl)c2)C(F)(F)F)ccc1C(=O)NCc1ccc(Cl)nc1 (stereo not drawn) [AC70] | 0 | 0
COc1cc(/C=C/C(c2cc(Cl)c(F)c(Cl)c2)C(F)(F)F)ccc1C(=O)NC1CSC1 (stereo not drawn) [AC71] | 50 to 100 | 50 to 100
CCc1cc(/C=C/C(c2cc(Cl)c(F)c(Cl)c2)C(F)(F)F)ccc1C(=O)NCc1ccc(Cl)nc1 (stereo not drawn) [AC72] | 50 to 100 | 50 to 100
O=C(NCc1ccc(C(F)(F)F)nc1)c1ccc(/C=C/C(c2cc(Cl)c(Cl)c(Cl)c2)C(F)(F)F)cc1Br (stereo not drawn) [AC75] | 50 to 100 | 50 to 100
CCc1cc(/C=C/C(c2cc(Cl)c(F)c(Cl)c2)C(F)(F)F)ccc1C(=O)NCc1cccnc1Cl (stereo not drawn) [AC76] | 50 to 100 | 50 to 100
Cc1cc(/C=C/C(c2cc(Cl)c(F)c(Cl)c2)C(F)(F)F)ccc1C(=O)NCc1cc(Cl)ccn1 (stereo not drawn) [AC77] | 50 to 100 | 50 to 100

SMILES | mortality at 50 µg/cm2 [1] [%] | mortality at 50 µg/cm2 [2] [%]
Cc1cc(/C=C/C(c2cc(Cl)c(Cl)c(Cl)c2)C(F)(F)F)ccc1C(=O)NCC(=O)NCC(F)(F)F (stereo not drawn) [AC78] | 50 to 100 | 50 to 100
O=C(CNC(=O)c1ccc(/C=C/C(c2cc(Cl)c(F)c(Cl)c2)C(F)(F)F)cc1Br)NCC(F)(F)F (stereo not drawn) [AC79, (E)-2-bromo-4-(3-(3,5-dichloro-4-fluorophenyl)-4,4,4-trifluorobut-1-en-1-yl)-N-(2-oxo-2-((2,2,2-trifluoroethyl)amino)ethyl)benzamide] | 50 to 100 | 50 to 100
CCc1cc(/C=C/C(c2cc(Cl)c(F)c(Cl)c2)C(F)(F)F)ccc1C(=O)NCC(=O)NCC(F)(F)F (stereo not drawn) [AC80] | 50 to 100 | 50 to 100
Cc1cc(/C=C/C(c2cc(Cl)cc(Cl)c2)C(F)(F)F)ccc1C(=O)NCC(=O)NC1CS(=O)(=O)C1 (stereo not drawn) [AC81] | 0 | 50 to 100
Cc1cc(/C=C/C(c2cc(Cl)cc(Cl)c2)C(F)(F)F)ccc1C(=O)N[C@H]1C[S@@+]([O-])C1 (stereo partly drawn) [AC82] | 50 to 100 | 50 to 100
O=C(NC1CS(=O)(=O)C1)c1ccc(/C=C/C(c2cc(Cl)cc(Cl)c2)C(F)(F)F)cc1F (stereo not drawn) [AC83, (E)-4-(3-(3,5-dichlorophenyl)-4,4,4-trifluorobut-1-en-1-yl)-N-(1,1-dioxidothietan-3-yl)-2-fluorobenzamide] | 50 to 100 | 50 to 100
O=C(NC1CS(=O)(=O)C1)c1ccc(/C=C/C(c2cc(Cl)c(F)c(Cl)c2)C(F)(F)F)cc1F (stereo not drawn) [AC84] | 50 to 100 | 50 to 100
COc1cc(/C=C/C(c2cc(Cl)c(F)c(Cl)c2)C(F)(F)F)ccc1C(=O)NC1CS(=O)(=O)C1 (stereo not drawn) [AC85] | 50 to 100 | 50 to 100
CCc1cc(/C=C/C(c2cc(Cl)c(F)c(Cl)c2)C(F)(F)F)ccc1C(=O)NC1CS(=O)(=O)C1 (stereo not drawn) [AC86] | 50 to 100 | 50 to 100
O=C(NC1C[S+]([O-])C1)c1ccc(/C=C/C(c2cc(Cl)c(F)c(Cl)c2)C(F)(F)F)cc1F (stereo not drawn) [AC87] | 50 to 100 | 50 to 100
Cc1cc(/C=C/C(c2cc(Cl)cc(Cl)c2)C(F)(F)F)ccc1C(=O)NCc1nnc(C2CC2)o1 (stereo not drawn) [AC89, (E)-N-((5-cyclopropyl-1,3,4-oxadiazol-2-yl)methyl)-4-(3-(3,5-dichlorophenyl)-4,4,4-trifluorobut-1-en-1-yl)-2-methylbenzamide] | 50 to 100 | 50 to 100
FC(F)(F)CNC(=S)CNC(=S)c1ccc(/C=C/C(c2cc(Cl)c(Cl)c(Cl)c2)C(F)(F)F)cc1Br (stereo not drawn) [AC90, (E)-2-bromo-N-(2-thioxo-2-((2,2,2-trifluoroethyl)amino)ethyl)-4-(4,4,4-trifluoro-3-(3,4,5-trichlorophenyl)but-1-en-1-yl)benzothioamide] | 50 to 100 | 50 to 100
O=C(CNC(=S)c1ccc(/C=C/C(c2cc(Cl)c(Cl)c(Cl)c2)C(F)(F)F)cc1Br)NCC(F)(F)F (stereo not drawn) [AC91, (E)-2-(2-bromo-4-(4,4,4-trifluoro-3-(3,4,5-trichlorophenyl)but-1-en-1-yl)phenylthioamido)-N-(2,2,2-trifluoroethyl)acetamide] | 50 to 100 | 50 to 100
O=C(NCC(=S)NCC(F)(F)F)c1ccc(/C=C/C(c2cc(Cl)c(Cl)c(Cl)c2)C(F)(F)F)cc1Br (stereo not drawn) [AC92, (E)-2-bromo-N-(2-thioxo-2-((2,2,2-trifluoroethyl)amino)ethyl)-4-(4,4,4-trifluoro-3-(3,4,5-trichlorophenyl)but-1-en-1-yl)benzamide] | 50 to 100 | 50 to 100
Cc1cc(/C=C\C(c2cc(Cl)cc(Cl)c2)C(F)(F)F)ccc1C(=O)NCC(=O)NC1CC1 (stereo not drawn) [AC93] | 0 | 50 to 100
Cc1cc(/C=C\C(c2cc(Cl)cc(Cl)c2)C(F)(F)F)ccc1C(=O)NCc1ccc(Cl)nc1 (stereo not drawn) [AC94] | 0 to 50 | 0
O=C(CNC(=O)c1ccc(/C=C\C(c2cc(Cl)c(Cl)c(Cl)c2)C(F)(F)F)cc1Br)NCC(F)(F)F (stereo not drawn) [AC95, (Z)-2-bromo-N-(2-oxo-2-((2,2,2-trifluoroethyl)amino)ethyl)-4-(4,4,4-trifluoro-3-(3,4,5-trichlorophenyl)but-1-en-1-yl)benzamide] | 50 to 100 | 50 to 100
CN(C)c1ccc(CNC(=O)c2ccc(/C=C/C(c3cc(Cl)c(Cl)c(Cl)c3)C(F)(F)F)cc2Br)cn1 (stereo not drawn) [AC96] | 0 | 0
COc1ccc(CNC(=O)c2ccc(/C=C/C(c3cc(Cl)c(Cl)c(Cl)c3)C(F)(F)F)cc2Br)cn1 (stereo not drawn) [AC97] | 0 | 0
O=C(CNC(=O)c1ccc(/C=C/C(c2cc(Cl)c(F)c(Cl)c2)C(F)(F)F)cc1[N+](=O)[O-])NCC(F)(F)F (stereo not drawn) [AC98] | 50 to 100 | 50 to 100
O=C(CNC(=O)c1ccc(/C=C/C(c2ccc(F)c(Cl)c2)C(F)(F)F)cc1Br)NCC(F)(F)F (stereo not drawn) [AC99] | 50 to 100 | 50 to 100

Reference: patent US9615576B2, “Pesticidal compositions and processes related thereto” (Dow AgroSciences LLC, priority 2011, dated 2017)
